Our source for the IC50 and EC50 values is patent US20120010205A1, “NOVEL QUINOLINE ESTERS USEFUL FOR TREATING SKIN DISORDERS” (Wyeth LLC, priority 2010, published 2012).

The target in one experiment is T1, hLXRa (Homo sapiens, UniProt Q13133).
T1 sequence (Q13133 1-447): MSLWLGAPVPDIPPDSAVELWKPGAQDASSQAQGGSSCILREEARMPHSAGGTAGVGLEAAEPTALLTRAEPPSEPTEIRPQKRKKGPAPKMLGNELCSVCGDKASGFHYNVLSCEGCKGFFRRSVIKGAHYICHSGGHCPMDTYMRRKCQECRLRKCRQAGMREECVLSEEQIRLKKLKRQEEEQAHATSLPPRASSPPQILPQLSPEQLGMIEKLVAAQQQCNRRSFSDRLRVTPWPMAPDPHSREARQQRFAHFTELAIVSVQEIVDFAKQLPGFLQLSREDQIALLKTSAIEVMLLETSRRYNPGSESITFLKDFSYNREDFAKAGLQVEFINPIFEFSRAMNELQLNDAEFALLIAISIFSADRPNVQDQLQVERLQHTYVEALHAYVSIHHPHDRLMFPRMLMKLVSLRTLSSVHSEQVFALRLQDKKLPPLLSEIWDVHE
Briefly: hLXRa binding.

The test system of experiment [1] is ABCG1. Briefly: Gene regulation by LXR: ABCG1, KERTr (serum-free). Format: cell-based.
A further experiment addresses T2, human LXRβ (Homo sapiens, UniProt P55055).
T2 construct: made in house; host or cells: E. coli
T2 sequence (P55055 1-460): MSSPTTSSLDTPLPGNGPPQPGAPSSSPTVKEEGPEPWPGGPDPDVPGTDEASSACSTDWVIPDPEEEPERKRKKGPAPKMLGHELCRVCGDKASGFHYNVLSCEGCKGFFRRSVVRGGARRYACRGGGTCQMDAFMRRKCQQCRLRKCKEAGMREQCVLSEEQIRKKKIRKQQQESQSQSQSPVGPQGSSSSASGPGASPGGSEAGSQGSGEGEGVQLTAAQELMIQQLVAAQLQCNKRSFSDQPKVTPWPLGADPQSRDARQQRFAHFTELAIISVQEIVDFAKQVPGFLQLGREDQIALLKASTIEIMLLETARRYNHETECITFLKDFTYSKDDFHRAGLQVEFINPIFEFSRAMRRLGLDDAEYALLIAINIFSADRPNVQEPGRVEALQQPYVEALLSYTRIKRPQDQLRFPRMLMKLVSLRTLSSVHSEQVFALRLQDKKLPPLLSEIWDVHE
The experiment in a line: Ligand-binding test procedure for human LXRβ (3H T0901317 tracer, flash plates). The note with it: read-out: hLXRb binding IC50. The procedure:
LIGAND-BINDING TEST PROCEDURE FOR HUMAN LXRβ.
Buffer: 100 mM KCl, 100 mM TRIS (pH 7.4 at +4° C.), 8.6% glycerol, 0.1 mM PMSF*, 2 mM MTG*, 0.2% CHAPS (* not used in wash buffer)
Receptor source: E. coli extracted from cells expressing biotinylated hLXRβ. Extract was made in a similar buffer as above, but with 50 mM TRIS.
Washed streptavidin and coated flash plates with wash buffer. Diluted receptor extract to give Bmax˜4000 cpm and add to the wells. Wrapped the plates in aluminum foil and stored them at +4° C. overnight.
Made a dilution series in DMSO of the test ligands. Made a 5 nM solution of the radioactive tracer in buffer. Mixed 250 μL diluted tracer with 5 μL of the test ligand from each concentration of the dilution series. Washed the receptor-coated flash plates. Added 200 μL per well of the ligand/radiolabel mixture to the receptor-coated flash plates. Wrapped the plates in aluminum foil and incubate at +4° C. over night.
Aspirated wells, and washed the flashed plates. Sealed the plate. Measured the remaining radioactivity in the plate.

The test system of experiment [2] is ABCG1. Briefly: Gene regulation by LXR: ABCG1, human foreskin fibroblasts (serum-free). Format: cell-based.

As to `CS(=O)(=O)c1cccc(C(=O)Oc2cccc(-c3c(-c4ccccc4)cnc4c(C(F)(F)F)cccc34)c2)c1` [Example 22, 3-[3-phenyl-8-(trifluoromethyl)quinolin-4-yl]phenyl 3-(methylsulfonyl)benzoate], the figures for the IC50 on hLXRa and on human LXRβ were 3.9 nM and 2.3 nM, respectively. The EC50 (commonly the concentration that produces a half-maximal response) with ABCG1 [1] was 9.15 nM; in the experiment with ABCG1 [2] (Fibroblast), 9.9 nM.
Taken in the same sequence, the figures for `CS(=O)(=O)c1cccc(C(=O)Oc2cccc(-c3c(Cc4ccccc4)cnc4c(C(F)(F)F)cccc34)c2)c1` [Example 23, 3-[3-benzyl-8-(trifluoromethyl)quinolin-4-yl]phenyl 3-(methylsulfonyl)benzoate] were 5.8 nM, 2.7 nM, 25 nM and 16 nM.
For `Cc1cnc2c(C(F)(F)F)cccc2c1-c1cccc(OC(=O)c2cccc(S(=O)(=O)N(C)C)c2)c1` [Example 25, 3-[3-methyl-8-(trifluoromethyl)quinolin-4-yl]phenyl 3-(dimethylsulfamoyl)benzoate], the values for the IC50 at hLXRa and on human LXRβ were 58 nM and 14 nM, respectively. Besides, the EC50 in the experiment on ABCG1 [1] is 42 nM; with ABCG1 [2] (Fibroblast), 250 nM.
As to `CCS(=O)(=O)c1cccc(C(=O)Oc2cccc(-c3c(C)cnc4c(C(F)(F)F)cccc34)c2)c1` [Example 26], the IC50 (as a rule, the midpoint of a concentration-inhibition curve) was 52 nM on hLXRa and 8.6 nM on human LXRβ. The concentration giving a half-maximal response (EC50) with ABCG1 [1] and in the experiment with ABCG1 [2] (Fibroblast) was 250 nM throughout.
In the case of `Cc1ccc(S(C)(=O)=O)cc1C(=O)Oc1cccc(-c2c(C)cnc3c(C(F)(F)F)cccc23)c1` [Example 27, 3-[3-methyl-8-(trifluormethyl)quinolin-4-yl]phenyl 2-methyl-5-(methylsulfonyl)benzoate], the figures for the IC50 on hLXRa and at human LXRβ were 140 nM and 35 nM, respectively. The EC50 in the experiment on ABCG1 [1] turned out to be 99 nM; in the experiment with ABCG1 [2], 25 nM.
Turning to `Cc1cnc2c(C(F)(F)F)cccc2c1-c1cccc(OC(=O)c2cc(S(C)(=O)=O)ccc2Cl)c1` [Example 28, 3-[3-methyl-8-(trifluoromethyl)quinolin-4-yl]phenyl 2-chloro-5-(methylsulfonyl)benzoate], the results for the IC50 on hLXRa and at human LXRβ were 105 nM and 19 nM, respectively. Besides, the EC50 in the experiment with ABCG1 [1] is 214 nM; in the experiment with ABCG1 [2] (Fibroblast) it was 67 nM.
For `Cc1cnc2c(C(F)(F)F)cccc2c1-c1cccc(OC(=O)c2ccc(S(C)(=O)=O)cc2)c1` [Example 29, 3-[3-methyl-8-(trifluoromethyl)quinolin-4-yl]phenyl 4-(methylsulfonyl)benzoate], the IC50 at hLXRa came out at 154 nM; on human LXRβ, 34 nM. For the same compound, the values for the EC50 in the experiment with ABCG1 [1] and with ABCG1 [2] (Fibroblast) were 167 nM and 250 nM, respectively.
Taken in the same sequence, the figures for `Cc1ccc(S(=O)(=O)N(C)C)cc1C(=O)Oc1cccc(-c2c(C)cnc3c(C(F)(F)F)cccc23)c1` [Example 30, 3-[3-methyl-8-(trifluoromethyl)quinolin-4-yl]phenyl 5-(dimethylsulfamoyl)-2-methylbenzoate] were 445 nM, 235 nM, 137 nM and 162 nM.
On to `CCS(=O)(=O)c1cccc(C(=O)Oc2cccc(-c3c(-c4ccccc4)cnc4c(Cl)cccc34)c2)c1` [Example 32, 3-(8-chloro-3-phenylquinolin-4-yl)phenyl 3-(ethylsulfonyl)benzoate], for which the IC50 at hLXRa was 7.9 nM; on human LXRβ, 3 nM. In addition, the EC50 came out at 2.86 nM in the experiment with ABCG1 [1] and 6.8 nM with ABCG1 [2] (Fibroblast).
Taken in the same sequence, the figures for `CC(C)c1cnc2c(Cl)cccc2c1-c1cccc(OC(=O)c2cccc(S(=O)(=O)N(C)C)c2)c1` [Example 33, 3-(8-chloro-3-isopropylauinolin-4-yl)phenyl 3-(dimethylsulfamoyl)benzoate] were 15 nM, 4.7 nM, 8.3 nM and 55 nM.
On the same counts, the results for `CC(C)c1cnc2c(Cl)cccc2c1-c1cccc(OC(=O)c2ccc(S(=O)(=O)N(C)C)cc2)c1` [Example 34, 3-(8-chloro-3-isopropylquinolin-4-yl)phenyl 4-(dimethylsulfamoyl)benzoate] are 188 nM, 64 nM, 1.38 nM and 78 nM.
With `CC(C)c1cnc2c(Cl)cccc2c1-c1cccc(OC(=O)c2cccc(CS(C)(=O)=O)c2)c1` [Example 35, 3-(8-chloro-3-isopropylauinolin-4-yl)phenyl 3-[(methylsulfonyl)methyl]benzoate], the IC50 at hLXRa is 8.7 nM; on human LXRβ, 5.6 nM. Moreover, the EC50 with ABCG1 [1] was found to be 0.53 nM; with ABCG1 [2], 11 nM.
For `CNS(=O)(=O)c1cccc(C(=O)Oc2cccc(-c3c(C(C)C)cnc4c(Cl)cccc34)c2)c1` [Example 36, 3-(8-chloro-3-isopropylquinolin-4-yl)phenyl 3-(methylsulfamoyl)benzoate], the results for the IC50 on hLXRa and at human LXRβ were 9.2 nM and 4.2 nM, respectively. Besides, the EC50 is 0.4 nM with ABCG1 [1] and 8 nM with ABCG1 [2] (Fibroblast).
Consider `CC(C)c1cnc2c(Cl)cccc2c1-c1cccc(OC(=O)c2cccc(S(=O)(=O)N3CCOCC3)c2)c1` [Example 37, 3-(8-chloro-3-isopropylauinolin-4-yl)phenyl 3-(morpholin-4-ylsulfonyl)benzoate], for which the IC50 turned out to be 202 nM on hLXRa and 69 nM on human LXRβ. In addition, the EC50 in the experiment with ABCG1 [1] came out at 2.42 nM; with ABCG1 [2], 60 nM.
Turning to `Cc1ccc(S(=O)(=O)N2CCOCC2)cc1C(=O)Oc1cccc(-c2c(C(C)C)cnc3c(Cl)cccc23)c1` [Example 38, 3-(8-chloro-3-isopropylquinolin-4-yl)phenyl 2-methyl-5-(morpholin-4-ylsulfonyl)benzoate], the results for the IC50 on hLXRa and on human LXRβ were 664 nM and 506 nM, respectively. Moreover, the EC50 turned out to be 0.62 nM in the experiment on ABCG1 [1] and 44 nM in the experiment on ABCG1 [2] (Fibroblast).
